Test results from patent US9144633B2, “Implantable devices coated with insulin-mimetic vanadium compounds and methods thereof” (RUTGERS, THE STATE UNIVERSITY OF NEW JERSEY, priority 2010, dated 2015).
Like-named read-outs stand apart in the source and are kept apart here.

Experiments:
bone fracture = test: Local VAC application without a carrier, fracture healing (preliminary data); type: in vivo; conditions: at the dosages tested
Description: This evidence opens up many future applications to the use of VAC alone, or incorporated with a carrier as an option for fracture healing.

bone homeostasis = conditions: cited from earlier work
[1] = cited from earlier work
kidney and liver = conditions: VAC treatment; cited from earlier work

Q: Which results are given for `CC(=O)/C=C(/C)[O-].CC(=O)/C=C(/C)[O-].[O]=[V+2]` [VAC, vanadyl acetylacetonate]?
A: speed of bone healing versus saline controls (bone fracture): more than twice as rapidly as saline controls; effect on bone parameters (bone homeostasis; diabetic rats): improved the ultimate strength, Tb,Th, MAR, and plasma osteocalcin; effect on bone parameters (bone homeostasis; normal rats): did not affect any bone parameters; tolerance / signs of toxicity ([1]; after several days): no signs of toxicity; tissue distribution / accumulation ([1]; widely distributed to all tissues): greatest accumulation was within femur tissue; function or structure of kidney and liver (kidney and liver): does not impair the function or structure of kidney and liver
